{
  "source": "patent US9801858B2",
  "about": "“Progress-supressing or improving agent for chronic kidney disease” (NIPPON ZOKI PHARMACEUTICAL CO., LTD., priority 2014, dated 2017)",
  "key": {"[1]": {"tested_on": "patients with diabetic CRF", "conditions": "cited from earlier work"}, "[2]": {"tested_on": "patients with CKD (rapidly-progressive and slowly-progressive)", "assay": "new clinical tests: investigational drug orally once daily for 24 weeks, CKD stage 3 or 4", "format": "in vivo, human", "conditions": "for progress of worsening of the renal function (inclination of regression line to 1/sCr, before vs after): 24 weeks", "from_the_text": "During such a period, a good idea has occurred that the effect of the present compound is investigated after dividing the patients with CKD into groups where worsening of the renal function is rapid and is not. As a result, the patients with CKD were divided into a group where changes in the reciprocal sCr value (1/sCr) per month before administration of the test drug are 0.01 dL/mg or more and worsening of the renal function is rapidly progressing (hereinafter, that will be referred to as “rapidly progressive CKD patients”) and another group where said changes are less than 0.01 dL/mg (hereinafter, that will be referred to as “slowly progressive CKD patients”) and clinical tests comparing the effect of the present compound were carried out. (Hereinafter, that will be referred to as “new clinical tests”.) Such a yardstick where the changes in the reciprocal sCr value are 0.01 dL/mg or more followed the yardstick adopted in the application of “Kremezin (Registered Trade Mark)” which is the above-mentioned spherical adsorptive carbon preparation. Further, in the new clinical tests, dose of the present compound was increased to some extent so as to find the difference from the results in the old clinical tests. Summary and result of the new clinical tests will be mentioned as follows.\nA clinical test for evaluating the efficacy and the safety of the present compound was conducted using the patients where the CKD stage was 3 or 4 as the object. Persons who meet the following selection criteria were selected from the patients who were diagnosed as CKD and receiving a conservation therapy. • Sex is withdrawn from the consideration. Pregnant women and mothers suckling a baby are however excluded. • Age is from 20 to 75 years old. • GFR value is 15 to 59. • Patients where the serum creatinine (sCr) value is within a range of 1.5 to 5.0 mg/dL at the start of the test, the measuring frequencies from 52 weeks before the test until the start of the test are thrice or more and the difference in the tested values in the initial and the final stages is 0.2 mg/dL or more (showing a rise). • Patients where a therapy with a pharmaceutical agent which is thought to suppress the progress of CKD (such as a spherical adsorptive carbon preparation) or a diet therapy is newly started during three month before the start of the test are excluded. • Moreover, patients having a symptom of cerebrovascular disturbance, patients with infectious disease and patients with peptic ulcer are excluded.\nAfter that, the objects were divided into the rapidly-progressive CKD patients and slowly-progressive CKD patients.\nAs a result, in the new clinical tests, the groups to which the tablets containing the present compound as an active ingredient (test drug) are administered and to which the tablets containing no active ingredient though being undistinguishable from the test drug are divided into six groups in total. Thus, they are three groups for slowly-progressive CKD patients comprising a placebo-administered group, a 800 mg test drug-administered group and a 1600 mg test drug-administered group and other three groups for a rapidly-progressive CKD patients comprising a placebo-administered, a 800 mg test drug-administered group and a 1600 mg test drug-administered group whereby there are six groups in total. The weight mentioned hereinabove is a weight of the present compound contained in the test drug and is a dose for one day. […]"}, "[3]": {"tested_on": "rats with chronic renal failure", "conditions": "adenine-induced chronic renal failure; cited from earlier work"}},
  "note": "Entries after “also recorded” stand apart in the source; their conditions may differ. Read-outs that look alike come from different tables or passages of the source.",
  "data": [
    {"smiles": "CN1C(=O)NC(=O)C1O", "note": "(stereo not shown) [the present compound, 5-hydroxy-1-methylhydantoin]", "values": [
      {"measurement": "inclination of the regression line of 1/sCr versus time", "setting": "[1]; 200 mg/day group (n=11), after the administration (24 weeks), mean±S.D., p=0.01, Non-Patent Document 2", "result": "−0.00046±0.00043"},
      {"measurement": "inclination of the regression line of 1/sCr versus time", "setting": "[1]; 200 mg/day group (n=11), before the administration, mean±S.D., Non-Patent Document 2", "result": "−0.00075±0.00066"},
      {"measurement": "inclination of the regression line of 1/sCr versus time", "setting": "[1]; 200 mg/day group (n=12), after the administration, p=0.016, Non-Patent Document 1", "result": "−0.0004±0.00047"},
      {"measurement": "inclination of the regression line of 1/sCr versus time", "setting": "[1]; 200 mg/day group (n=12), before the administration, Non-Patent Document 1", "result": "−0.00078±0.00064"},
      {"measurement": "inclination of the regression line of 1/sCr versus time", "setting": "[1]; 400 mg/day group (n=11), after the administration (24 weeks), mean±S.D., p=0.02, Non-Patent Document 2", "result": "−0.00066±0.00097"},
      {"measurement": "inclination of the regression line of 1/sCr versus time", "setting": "[1]; 400 mg/day group (n=11), after the administration, p=0.024, Non-Patent Document 1", "result": "−0.00068±0.00096"},
      {"measurement": "inclination of the regression line of 1/sCr versus time", "setting": "[1]; 400 mg/day group (n=11), before the administration, Non-Patent Document 1", "result": "−0.00098±0.00077"},
      {"measurement": "inclination of the regression line of 1/sCr versus time", "setting": "[1]; 400 mg/day group (n=11), before the administration, mean±S.D., Non-Patent Document 2", "result": "−0.00098±0.00077"},
      {"measurement": "side effect in the clinical test and in the clinical symptom", "setting": "[1]; 200 or 400 mg/day orally for 24 weeks", "result": "No critical side effect"},
      {"measurement": "accumulation of the pharmaceutical agent", "setting": "[1]; during the course of the clinical test, 200 or 400 mg/day for 24 weeks", "result": "no accumulation"},
      {"measurement": "progress of worsening of the renal function (inclination of regression line to 1/sCr, before vs after)", "setting": "[2]; 800 mg/day, rapidly-progressive CKD patients (five test subjects), Dunnett test", "result": "significantly suppressed or improved; also recorded: a downward-sloping inclination becomes somewhat upward rather than moderate"},
      {"measurement": "progress of worsening of the renal function (inclination of regression line to 1/sCr, before vs after)", "setting": "[2]; 800 mg/day, slowly-progressive CKD patients", "result": "No such an effect was achieved"},
      {"measurement": "progress of worsening of the renal function (inclination of regression line to 1/sCr, before vs after)", "setting": "[2]; 1600 mg/day, rapidly-progressive CKD patients", "result": "a certain effect was noted in a rapidly-progressive CKD patient but the effect was not so significant"},
      {"measurement": "progress of worsening of the renal function (inclination of regression line to 1/sCr, before vs after)", "setting": "[2]; 1600 mg/day, slowly-progressive CKD patients", "result": "No effect was noted"},
      {"measurement": "side effect / safety", "setting": "[2]; all cases including the 1600 mg/day-administered group, 24 weeks oral", "result": "almost no side effect is noted; also recorded: no critical side effect becoming a problem is observed"},
      {"measurement": "action on uremic toxin such as urea nitrogen and creatinine", "setting": "[3]", "result": "action of lowering the uremic toxin"}
    ]}
  ]
}
